Assay results published in ChEMBL document CHEMBL1126457, “Synthesis of novel targeted pro-prodrugs of anthracyclines potentially activated by a monoclonal antibody galactosidase conjugate (part 1)” (1992).

Test system: L1210
Assay: Compound was evaluated for cytotoxicity against L1210 murine leukemia cells
Type: functional, Mus musculus

Structure (SMILES)	Cytotoxicity [µg/mL]
COc1cccc2c1C(=O)c1c(O)c3c(c(O)c1C2=O)C[C@@](O)(C(C)=O)C[C@@H]3O[C@H]1C[C@H](N)[C@H](O)[C@H](C)O1 [DAUNORUBICIN]	0.02
COc1cccc2c1C(=O)c1c(O)c3c(c(O)c1C2=O)C[C@@](O)(C(C)=O)C[C@@H]3O[C@H]1C[C@@H](NC(=O)OCc2ccc(O[C@H]3O[C@@H](CO)[C@H](O)[C@H](O)[C@@H]3O)cc2)[C@H](O)[C@H](C)O1	>1
COc1cccc2c1C(=O)c1c(O)c3c(c(O)c1C2=O)C[C@@](O)(C(C)=O)C[C@@H]3O[C@H]1C[C@@H](NC(=O)OCc2ccccc2O[C@H]2O[C@@H](CO)[C@H](O)[C@H](O)[C@@H]2O)[C@H](O)[C@H](C)O1	>1
